Consider two molecules from patent publication US6166025A, “Pharmaceutical compositions containing eletriptran hemisulphate and caffeine” (Pfizer Inc., priority 1997, dated 2000).

A value given as a limit tells only on which side of the number the result lay.

The nature of one data set: Aqueous solubility. The settings on record: water, 4° C. The class given is physicochemical.
Data set [1] in a line: Stability of a solution in pH 8 aqueous buffer on standing for 12 weeks at 50° C. It is filed as physicochemical.
The conditions of data set [2]: aqueous solution; Higuchi et al. 1955; cited from earlier work.

In turn, `CN1CCC[C@@H]1Cc1c[nH]c2ccc(CCS(=O)(=O)c3ccccc3)cc12` [Eletriptan hemisulphate] registered a solubility in the data set “Aqueous solubility” of more than 100 mg/mL. Also, in data set [1] (H.P.L.C. techniques), the “number of degradation products detected by H.P.L.C.” value is “At least five”. The hydrolytic stability result in data set [1] (aqueous solutions) was “hydrolytically unstable”. For the same molecule, the remaining at 2016 h in data set [1] (pH 8 aqueous buffer, 12 weeks at 50° C., read-out: eletriptan left (relative to the original weight)) was less than 85%.
`CCOC(=O)c1ccc(N)cc1` [benzocaine]: in data set [2], the “effect of caffeine on hydrolytic degradation” value was “substantially reduces the hydrolytic degradation”.
